Numbers after ± are expanded uncertainties.
How the values were obtained:
[1] = Molar enthalpy of transition or fusion; details: Crystal; DSC
[2] = Crystal; DTA

Row | SMILES | Molar enthalpy of transition or fusion [1] [kcal/mol] | Normal melting temperature [2] [°C]
1 | CCCCCCCCCCCCCCCC [hexadecane] | 12 ± 0.55 | 17 ± 5
2 | CCCCCCCCCCCCCCCCCC [octadecane] | 14.2 ± 0.598 | 25 ± 5

Reference: the NIST ThermoML archive (doi:10.1016/j.tca.2015.05.015)
